Literature values in patent US20250073222A1, “METHODS FOR THE TREATMENT AND PREVENTION OF NON-VIRAL TICK-BORNE DISEASES AND SYMPTOMS THEREOF” (60 DEGREES PHARMACEUTICALS LLC, priority 2023, published 2025).
Where two headings read alike, the source gives them in different places.

Legend:
Babesia microti = conditions: animals; cited from earlier work
Pneumocystis = conditions: mice; cited from earlier work
[1] = cited from earlier work
Babesia [2] = conditions: mice, single doses; cited from earlier work
[3] = test system: gametocytes of P. falciparum; conditions: cited from earlier work
[4] = test system: P. falciparum gametocytes; conditions: single dose combined with dihydroartemisinin/piperaquine; cited from earlier work
Plasmodium vivax = conditions: 400 mg/day for three days, monotherapy, symptomatic P. vivax malaria patients; cited from earlier work
[5] = coadministered with chloroquine; cited from earlier work
[6] = test system: extracellular blood stage forms of Trypanosoma brucei; conditions: cited from earlier work
[7] = loading dose of 600 mg over three days followed by weekly 200 mg for up to one year, cited from earlier work
B. microti = conditions: one patient, prior rituximab; tafenoquine: approved malaria prevention dose as monotherapy for six weeks; cited from earlier work
Babesia [8] = conditions: one and three doses, immunocompromised mice and dogs; cited from earlier work
[9] = test system: free-living gram-negative bacteria and free-living gram-positive bacteria; conditions: cited from earlier work
B. rodhaini = conditions: cited from earlier work
[10] = test system: intracellular amastigote forms of Leishmania major; conditions: cited from earlier work
Plasmodium falciparum = conditions: 600 mg loading dose followed by 200 mg; parasite load three days after last dose; non-immune volunteers; cited from earlier work
B. gibsoni = conditions: splenectomized dogs; cited from earlier work
Babesia parasites = conditions: 100 microM for 2 h; cited from earlier work
[11] = test system: various serovars of Leptospira; conditions: exposure for as little as 30 min; cited from earlier work
Treponema palludum = conditions: 50 or 100 microM for two hours in a 3% oxygen atmosphere; cited from earlier work
[12] = test system: Trypanosome brucei blood stage forms; conditions: exposure for 90 minutes; cited from earlier work
[13] = single dose of 20 mg/kg, Balb/c (immunocompetent) mice
[14] = single dose of 20 mg/kg, immunocompromised SCID mice

COc1cc(NC(C)CCCN)c2nccc(C)c2c1 (centres unmarked) [4-methyl substituted primaquine]
efficacy against Babesia microti compared with primaquine (Babesia microti): more efficacious than primaquine

COc1cc(NC(C)CCCN)c2ncccc2c1 (centres unmarked) [primaquine]
cure of Pneumocystis infections (Pneumocystis): must be combined with clindamycin to achieve the same outcome | half-life ([1]; in vivo): approximately 6 hours | dose that cleared Babesia parasitemia (Babesia [2]): 100 mg/kg | effect on gametocytes of P. falciparum [3]: killed by site specific (in bone marrow) excess production of hydrogen peroxide | time until gametocyte infectivity was statistically lower than reference values [4]: by two days post-dosing

COc1cc(C)c2c(Oc3cccc(C(F)(F)F)c3)c(OC)cc(NC(C)CCCN)c2n1 (centres unmarked) [tafenoquine, N(4)-[2,6-Dimethoxy-4-methyl-5-[3-(trifluoromethyl)phenoxy]quinolin-8-yl]pentane-1,4-diamine]
cure of Pneumocystis infections (Pneumocystis): can be administered as monotherapy to cure Pneumocystis infections | half-life in vivo compared with primaquine ([1]; FIG. 1A and FIG. 1B legend): longer half-life in vivo | time by which all patients cleared blood stage parasites (Plasmodium vivax): ≤ 8 days | effect on QTC prolongation of chloroquine [5]: did not increase the QTC prolongation | potency of killing [6]: < 4 µM | overall rate of adverse events relative to placebo [7]: without increasing the overall rate of adverse events | specific adverse events with increased risk ([7]; reversible, not clinically significant): gastrointestinal effects [mild to moderate] and cornea verticillata | clinical outcome of the regimen (B. microti): the patient was cured | clearance and cure of Babesia (Babesia [8]): sufficient to clear and cure Babesia | dose that cleared Babesia parasitemia (Babesia [2]): 20 mg/kg | activity against gram-negative versus gram-positive bacteria [9]: much less active against free-living gram-negative bacteria than free-living gram-positive bacteria | effect on B. rodhaini blood stages (vacuoles) (B. rodhaini; single dose of 20 mg/kg in mice): induces the formation of large vacuoles | parasitemia (B. rodhaini; [13]): cleared parasitemia | survival (B. rodhaini; [13]): 100% | death (B. rodhaini; [14]): death was therefore delayed | parasitemia (B. rodhaini; [14]): cleared initial parasitemia but did not prevent relapses | potency of killing [10]: < 4 µM | development of blood stage parasitemia after challenge (Plasmodium falciparum): none of the tafenoquine subjects did | symptoms of infection such as anorexia, elevated respiration and pulse (B. gibsoni): alleviated

OO [hydrogen peroxide]
effect on Babesia parasites in vitro (Babesia parasites): kills Babesia parasites in vitro | concentrations that killed [11]: < 180 µM | effect on growth (Treponema palludum): significantly inhibited | concentration that killed blood stage forms [12]: approximately 140 microM
